Test results: ChEMBL document CHEMBL1136532, “Novel water soluble 2,6-dimethoxyphenyl ester derivatives with intravenous anaesthetic activity” (Bioorg Med Chem Lett, 2003)

Legend:
[1] = target: GABA-A receptor; anion channel; assay: Inhibition of [35S]TBPS binding to GABA-A receptor rat whole brain membranes; format: cell membranes
Mus musculus [2] = assay: Anesthetic activity determined as hypnotic dose by intravenous administration in male MF-1 mice; format: functional
Mus musculus [3] = assay: Anesthetic activity as hypnotic dose by intravenous administration in male MF-1 mice; Convulsant; format: functional, organism-based
Rattus norvegicus [4] = assay: Time for Mean burst suppression ratio (BSR) after the start of a 10 s iv bolus injection of compound; format: functional
Rattus norvegicus [5] = assay: Time to 1st 0.25 s BS epoch (s) of Mean burst suppression ratio (BSR) after the start of a 10 s iv bolus injection of compound; format: functional
Mus musculus [6] = assay: Anesthetic activity as hypnotic dose by intravenous administration in male MF-1 mice; format: functional
Rattus norvegicus [7] = assay: Time to 30% Mean burst suppression ratio (BSR) after the start of a 10 s iv bolus injection of compound; format: functional
Rattus norvegicus [8] = assay: Time to righting for Mean burst suppression ratio (BSR) after the start of a 10 s iv bolus injection of compound; format: functional
Rattus norvegicus [9] = assay: Dose for 60% Mean burst suppression ratio (BSR) after the start of a 10 s iv bolus injection of compound; format: functional
Rattus norvegicus [10] = species: Rattus norvegicus; assay: (§1) Parameter value extracted from closed loop infusions to maintain 60% Mean burst suppression ratio (BSR) for 1 h periods; format: functional, organism-based
Rattus norvegicus [11] = species: Rattus norvegicus; assay: Parameter value extracted from closed loop infusions to maintain 60% Mean burst suppression ratio (BSR) for 1 hr periods; format: functional
Rattus norvegicus [12] = species: Rattus norvegicus; assay: as §1; format: functional

## COCC(C(=O)Oc1c(OC)cccc1OC)N1CCCOCC1 (stereo in doubt; 26)
[1]
  IC50: 35 µM
Mus musculus [2]
  HD50: 30 µM/kg

## CCOCCN(CCOCC)CC(C(=O)Oc1c(OC)cccc1OC)N(CCOCC)CCOCC (configuration not stated)
Mus musculus [3]
  HD50: Convulsant

## CCOCCC(C(=O)Oc1c(OC)cccc1OC)N1CCCOCC1 (racemic)
[1]
  IC50: 34.9 µM

## COCCC(C(=O)Oc1c(OC)cccc1OC)N1CCCOCC1 (single isomer, unassigned; form 2)
[1]
  IC50: 32.5 µM

## CC(C)c1cccc(C(C)C)c1O [PROPOFOL]
Rattus norvegicus [4]
  Time: 30 s
Rattus norvegicus [5]
  Time: 13.1 s
Mus musculus [6]
  HD50: 68 µM/kg
Rattus norvegicus [7]
  Time: 1.5 min
Rattus norvegicus [8]
  Time: 5.5 min
Rattus norvegicus [9]
  Dose: 41 µM/kg

## COc1cccc(OC)c1OC(=O)C(CN1CCCOCC1)N1CCCOCC1 (configuration not stated)
Mus musculus [6]
  HD50: <25 µM/kg

## CCOCCC(C(=O)Oc1c(OC)cccc1OC)N1CCCCCC1 (configuration not stated)
Mus musculus [2]
  HD50: 25 µM/kg

## COCCC(C(=O)Oc1c(OC)cccc1OC)N1CCCCCC1 (configuration not stated)
Mus musculus [2]
  HD50: 17 µM/kg

## COCC(C(=O)Oc1c(OC)cccc1OC)N1CCCOCC1 (single isomer, unassigned; form 2)
[1]
  IC50: 98.3 µM
Mus musculus [2]
  HD50: 40 µM/kg

## COc1cccc(OC)c1OC(=O)C(CN1CCSCC1)N1CCOCC1 (configuration not stated)
Mus musculus [6]
  HD50: 17 µM/kg

## CCOCCC(C(=O)Oc1c(OC)cccc1OC)N1CCCOCC1 (single isomer, unassigned)
[1]
  IC50: > 100 µM
Mus musculus [2]
  HD50: 48 µM/kg

## COc1cccc(OC)c1OC(=O)C(CN1CCCCC1)N1CCOCC1 (configuration not stated)
Mus musculus [6]
  HD50: 15 µM/kg

## CCOCCC(C(=O)Oc1c(OC)cccc1OC)N1CCCOCC1 (stereo in doubt)
Mus musculus [2]
  HD50: 15 µM/kg

## COCC(C(=O)Oc1c(OC)cccc1OC)N1CCSCC1 (configuration not stated)
Mus musculus [2]
  HD50: 21 µM/kg

## COc1cccc(OC)c1OC(=O)C(CN1CCSCC1)N1CCSCC1 (configuration not stated)
Mus musculus [6]
  HD50: 15 µM/kg

## COc1cccc(OC)c1OC(=O)C(CN1CCOCC1)N1CCOCC1 (configuration not stated)
Mus musculus [6]
  HD50: 38 µM/kg

## COCCC(C(=O)Oc1c(OC)cccc1OC)N(CCOC)CCOC (configuration not stated)
Mus musculus [2]
  HD50: 27 µM/kg

## COCCC(C(=O)Oc1c(OC)cccc1OC)N1CCCOCC1 (racemic)
[1]
  IC50: 69.5 µM
Mus musculus [2]
  HD50: 20 µM/kg

## C=CCN1CCN(Cc2ccccc2)C(C(=O)Oc2c(OC)cccc2OC)C1 (configuration not stated)
Mus musculus [6]
  HD50: 31 µM/kg

## CCOCCN(CCOCC)C(COC)C(=O)Oc1c(OC)cccc1OC (configuration not stated)
Mus musculus [2]
  HD50: 25 µM/kg

## CCOCCN(CCOCC)CC(C(=O)Oc1c(OC)cccc1OC)N1CCOCC1 (configuration not stated)
Mus musculus [3]
  HD50: Convulsant

## COCCC(C(=O)Oc1c(OC)cccc1OC)N1CCCOCC1 (stereo in doubt; 31)
Mus musculus [2]
  HD50: 15 µM/kg

## CCOCCC(C(=O)Oc1c(OC)cccc1OC)N1CCCOCC1 (stereo in doubt; 39)
Mus musculus [2]
  HD50: 23 µM/kg

## CCOCC(C(=O)Oc1c(OC)cccc1OC)N1CCCOCC1 (configuration not stated)
Mus musculus [2]
  HD50: 20 µM/kg

## COCCCN(CCCOC)C(COC)C(=O)Oc1c(OC)cccc1OC (configuration not stated)
Mus musculus [2]
  HD50: 46 µM/kg

## COCCC(C(=O)Oc1c(OC)cccc1OC)N1C=CCCC1 (configuration not stated)
Mus musculus [2]
  HD50: 22 µM/kg

## CCOCCC(C(=O)Oc1c(OC)cccc1OC)N(CCOCC)CCOCC (configuration not stated)
Mus musculus [2]
  HD50: 47 µM/kg

## COCC(C(=O)Oc1c(OC)cccc1OC)N1CCCOCC1 (single isomer, unassigned; form 1) [listing 1 of 2 here]
Rattus norvegicus [10]
  Stability of BSR: 2.5%

## COCC(C(=O)Oc1c(OC)cccc1OC)N1CCCCC1 (configuration not stated)
Mus musculus [2]
  HD50: 146 µM/kg

## COCC(C(=O)Oc1c(OC)cccc1OC)N1CCCOCC1 (single isomer, unassigned; form 1) [listing 2 of 2 here]
Rattus norvegicus [4]
  Time: 32 s
Rattus norvegicus [11]
  Infusion rate: 5 µM/min/kg
  Time to 30% BSR: 2.4 min
Rattus norvegicus [5]
  Time: 12.9 s
Rattus norvegicus [12]
  Time to righting: 6.8 min
Rattus norvegicus [7]
  Time: 1.3 min
[1]
  IC50: 35.8 µM
Mus musculus [2]
  HD50: 16 µM/kg
Rattus norvegicus [8]
  Time: 3.3 min
Rattus norvegicus [9]
  Dose: 11.4 µM/kg

## COCCC(C(=O)Oc1c(OC)cccc1OC)N1CCCCC1 (configuration not stated)
Mus musculus [2]
  HD50: 22 µM/kg

## CCN1CCN(Cc2ccccc2)C(C(=O)Oc2c(OC)cccc2OC)C1 (configuration not stated)
Mus musculus [6]
  HD50: 24 µM/kg

## CCC(=O)N1CCN(Cc2ccccc2)C(C(=O)Oc2c(OC)cccc2OC)C1 (configuration not stated)
Mus musculus [6]
  HD50: 34 µM/kg

## COCCC(C(=O)Oc1c(OC)cccc1OC)N1CCCOCC1 (single isomer, unassigned; form 1)
[1]
  IC50: > 100 µM
Mus musculus [2]
  HD50: 30 µM/kg

## CCOCCC(C(=O)Oc1c(OC)cccc1OC)N(CCOC)CCOC (configuration not stated)
Mus musculus [2]
  HD50: 27 µM/kg

## CCOCCC(C(=O)Oc1c(OC)cccc1OC)N1CCOCC1 (configuration not stated)
Mus musculus [2]
  HD50: 36 µM/kg

## COc1cccc(OC)c1OC(=O)C(CN1CCOCC1)N1CCSCC1 (configuration not stated)
Mus musculus [6]
  HD50: 19 µM/kg

## COCCN(CCOC)CC(C(=O)Oc1c(OC)cccc1OC)N(CCOC)CCOC (configuration not stated)
Mus musculus [3]
  HD50: Convulsant

## CCOCCN(CCOCC)C(CCOC)C(=O)Oc1c(OC)cccc1OC (configuration not stated)
Mus musculus [2]
  HD50: 28 µM/kg

## COCCC(C(=O)Oc1c(OC)cccc1OC)N1CCOCC1 (configuration not stated)
Mus musculus [2]
  HD50: 38 µM/kg

## COc1cccc(OC)c1OC(=O)C(CN1CCOCC1)N1CCc2ccccc2C1 (configuration not stated)
Mus musculus [6]
  HD50: 21 µM/kg

## COCC(C(=O)Oc1c(OC)cccc1OC)N1CCOCC1 (configuration not stated)
Mus musculus [2]
  HD50: 54 µM/kg

## COc1cccc(OC)c1OC(=O)C1CN(C)CCN1Cc1ccccc1 (configuration not stated)
Mus musculus [6]
  HD50: 122 µM/kg

## COCCN(CCOC)C(CN1CCOCC1)C(=O)Oc1c(OC)cccc1OC (configuration not stated)
Mus musculus [6]
  HD50: 75 µM/kg

## COCCC(C(=O)Oc1c(OC)cccc1OC)N1CCC(OC)CC1 (configuration not stated)
Mus musculus [2]
  HD50: 21 µM/kg

## CC[C@H](C(=O)Oc1c(OC)cc(C)cc1OC)N(CCOC)CCOC [ORG-24447]
Mus musculus [6]
  HD50: 22 µM/kg
[1]
  IC50: 29.3 µM

## COc1cccc(OC)c1OC(=O)C1CNCCN1Cc1ccccc1 (configuration not stated)
Mus musculus [3]
  HD50: Convulsant
